Reference: patent publication US20240261266A1, “BENZIMIDAZOLE COMPOUND OR SALT THEREOF, CANINE FILARIASIS CONTROL AGENT CONTAINING SAME, AND METHOD OF USE THEREOF” (NIHON NOHYAKU CO., LTD., priority 2021, published 2024)

Test system: Canine filariae (Dirofilaria immitis) L-3 stage larvae
Test: Impact evaluation test on growth of canine filariae (L3 to L4)
Settings: 168 h, read-out: growth inhibition rate (growth from L3-stage larvae to L4-stage larvae)

CCCCC#Cc1ccc(-c2nc3c(Br)cc(Br)cc3[nH]2)o1 [Compound 1-11, 4,6-dibromo-2-(5-(1-hexynyl)-2-furyl)benzimidazole]
inhibition at 50 ppm: ≥ 50%
